≈ marks a conversion by molar mass, not a printed value.
Legend:
[1] = Evaluation of solubility in organic solvents at 25° C.; format: physicochemical; settings: tetrahydrofuran, organic solvent or mixture
Description: The compound 2 (2,4-bisoctadecyloxyphenylmethanol) thus obtained was measured for solubility in hexane, cyclohexane, dichloromethane and tetrahydrofuran, respectively, when used as solvents at 25° C.
3,4,5-Tris-octadecyloxybenzylalcohol (compound 6) having the following chemical formula was measured for solubility in various solvents at 25° C. similar to as in Example 1.

[2] = Evaluation of separation efficiency: excision of the compound from the carrier with trifluoroacetic acid/dichloromethane, material consumption by HPLC; format: physicochemical
Description: By stirring the obtained compound 7 (4-iodo-benzoic acid 2,4-bis-octadecyloxybenzyl ester) in solvents listed in Table 2 and for the times shown in Table 2, separation of the compound from the carrier was performed to obtain the reaction rate. In this case, the reaction rate was calculated by assessing the disappearance of material by HPLC.
Regarding compound 9 (4-iodo-benzoic acid 3,4,5-tris-octadecyloxybenzyl ester) having the following formula 6, which was prepared by condensing 4-iodobenzoic acid to compound 6 (3,4,5-tris-octadecyloxybenzyl alcohol), the separation reaction rate was measured under various conditions similar to in Example 2.
The above-obtained compound was evaluated for the separation efficiency, similar to Example 3, when it was stirred in dichloromethane containing 1% trifluoroacetic acid for 30 min. As a result, the reaction rate was 100%.

[3] = 1% trifluoroacetic acid/dichloromethane, 30 min
[4] = 10% trifluoroacetic acid/dichloromethane, 120 min
[5] = 50% trifluoroacetic acid/dichloromethane, 120 min

solubility [1]	Reaction rate (material consumption evaluated by HPLC measurement) [2, 3]	Reaction rate (material consumption evaluated by HPLC measurement) [2, 4]	Reaction rate (material consumption evaluated by HPLC measurement) [2, 5]	SMILES
236 mg/mL (≈ 312 mM)				CCCCCCCCCCCCCCCCCCCCCCOc1ccc(CO)c(OCCCCCCCCCCCCCCCCCCCCCC)c1 [2,4-bis-docosanoxyphenyl methanol]
	100%			CCCCCCCCCCCCCCCCCCCCCCOc1ccc(COC(=O)c2ccc(I)cc2)c(OCCCCCCCCCCCCCCCCCCCCCC)c1 [4-iodo-benzoic acid 2,4-bis-docosanoxybenzyl ester]
	100%	100%	100%	CCCCCCCCCCCCCCCCCCOc1ccc(COC(=O)c2ccc(I)cc2)c(OCCCCCCCCCCCCCCCCCC)c1 [Compound 7, 4-iodo-benzoic acid 2,4-bis-octadecyloxybenzyl ester]
	1< %	12%	100%	CCCCCCCCCCCCCCCCCCOc1cc(COC(=O)c2ccc(I)cc2)cc(OCCCCCCCCCCCCCCCCCC)c1OCCCCCCCCCCCCCCCCCC [Compound 9, 4-iodo-benzoic acid 3,4,5-tris-octadecyloxybenzyl ester, reference compound]

From patent US9284348B2, “Method for synthesis of peptide using a carrier” (JITSUBO Co., Ltd., priority 2005, dated 2016)
